Consider three substances from publication PMC3832545 (PLoS ONE, 2013).

For one assay, the system named is MC38 cells. Put plainly: MTT cell proliferation assay, MC38 cells. It is filed as cell-based, mouse. To be noted: 24 h, 0.25% (v/v) serum, 0.001 to 1000 nM, three independent experiments with four replicates. Here is the method: Effect of test compounds on proliferation was assessed with 3-(4,5-dimethylthiazol-2-yl)-2,5-diphenyl tetrazolium bromide (MTT) assays, essentially as described previously. In brief, MC38 cells were plated in 96-well plates (5,000 cells per well) in growth medium. […] Data for relative cell numbers from the three repeated experiments, each with four replicate samples per condition, were then used to fit dose-response curves using GraphPad Prism version 6.0 (GraphPad Software Inc., La Jolla, CA, USA). Cell proliferation experiments were done with MCF-7 cells as described for MC38 cells, except that 20,000 cells were plated per well. See Materials S1 and Figure S1 for detailed supplementary information regarding cell proliferation experiments.
In initial tests the association between number of cells and absorbance at 570 nm measured in an MTT assay was examined after incubation of MC38 cells with MTT for 3 h, 3 h after plating different number of cells per well, i.e., the total incubation period was 6 h. As expected there was a highly linear relationship between absolute number of cells and the measured absorbance (Figure S1). […] After incubation for 1 day cells were rinsed in PBS (room temperature) and then starvation medium was added. […] Control samples were treated with starvation medium only. After treatment for 21 h, 10 µl stock solution of MTT dissolved in PBS (5.0 mg/ml) was added to each well, and incubation was continued for 3 h so treatment with test compounds in total lasted 24 h. At the end of the treatment period medium with test compounds was removed and formazan crystals were suspended by adding 100 µl 0.04 M HCl dissolved in isopropanol to each well and absorbance was thereafter read at 570 nm using a Emax PC plate reader (Molecular Devices LLC, Sunnyvale, CA, USA). Each treatment was done with four replicate samples and three independent experiments were performed. In each experiment the absorbance was normalized to the mean absorbance in the untreated control samples. […]
For orientation: Formazan colour is commonly taken as a measure of viable cells.

Assay [1] concerns PI3K signalling pathway in MC38 cell allografts. The experiment in a line: Signalling in MC38 tumor allografts in vivo, Western blot. Also on record: species or system mouse. To be noted: MC38 tumor allografts collected 1 h after sc administration, DIO-mice. Here is the method:
We focused on different endpoints in these animal experiments and monitored tumor growth in all experiments, see Table 1. The animal experiments were performed as described recently. […] Animal care and treatments were conducted in accordance with established guidelines and protocols approved by the Lady Davis Institute (protocol # 5951) and McGill University's Animal Ethics Committee. Mice were housed one mouse per cage with ad libitum access to tap water and high- or low fat diet, respectively, throughout the studies. The temperature in the animal rooms was maintained at 20-25°C with a light/dark cycle of 14/10 hours. Mice were acclimatized for 7-10 days before experimental procedures were initiated. At experimental day 0, 2.0×10^5 (experiment A) or 5.0×10^5 (all other experiments) MC38 cells, suspended in 100 μl phosphate-buffered saline (PBS), were injected subcutaneously (sc) in the right flank of the mice. […] The size of the tumor allografts was measured three times per week and the volume calculated using the following formula: length × width^2 × 0.52. Based on the tumor volume data for each mouse, we calculated the area under the tumor growth curves (tumor growth AUC). At termination of the experiments, mice were anesthetized with isoflurane. […] Incubation with secondary antibody (horse radish peroxidase-conjugated goat anti-rabbit IgG (Santa-Cruz Biotechnology, Santa Cruz, CA, USA, cat. no 5401) and visualization of protein bands was done as described previously. The intensity of protein bands was quantified using the software ImagePro (BioRad). In each cell signalling experiment, band intensities were normalized to the mean of the vehicle-treated samples. IR and IGF-1R bands in the liver, muscle colon and MC38 cell allografts were normalized to mean band intensities in liver and muscle samples, respectively.

Take “IGF-1: recombinant human IGF-1 (Increlex, IPSEN Pharma GmbH)”: in the assay with MC38 cells, the “Ranking according to mitogenic potency (MTT assay)” value (“Ranking according” below) was “X10≥IGF-1>HI”. Further, in assay [1], the “Activation of Akt, p70S6K and mTOR in tumor allografts” value (shortened to “Activation … in tumor allografts”) is reported as “pronounced activation”.

Regarding human insulin [HI], in the assay on MC38 cells, the “Ranking according” value was “X10≥IGF-1>HI”. Besides, the “Activation … in tumor allografts” value in assay [1] is “pronounced activation”.

Consider insulin analog B10Asp [X10], for which, in the assay with MC38 cells, the “Ranking according” value is on record as “X10≥IGF-1>HI”. In assay [1], the “Activation … in tumor allografts” value is given as “pronounced activation”.
